Measured values published in paper PMC5007443, “TNIK inhibition abrogates colorectal cancer stemness” (Nature Communications, 2016).

Experiments:
[1] = molecular target: ABL (Homo sapiens, UniProt P00519); assay: Kinase selectivity profiling, c-Abl oncogene 1; assay type: biochemical; conditions: read-out: Percentage inhibition of ABL
Procedure: (§1) The selectivity of compounds against a panel of 50 human protein kinases was assessed using a non-radiometric assay.

[2] = molecular target: FGFR1 (Homo sapiens, UniProt P11362); assay: Kinase selectivity profiling, Fibroblast growth factor receptor 1; assay type: biochemical; conditions: read-out: Percentage inhibition of FGFR1
Chain of FGFR1 (P11362 22-822): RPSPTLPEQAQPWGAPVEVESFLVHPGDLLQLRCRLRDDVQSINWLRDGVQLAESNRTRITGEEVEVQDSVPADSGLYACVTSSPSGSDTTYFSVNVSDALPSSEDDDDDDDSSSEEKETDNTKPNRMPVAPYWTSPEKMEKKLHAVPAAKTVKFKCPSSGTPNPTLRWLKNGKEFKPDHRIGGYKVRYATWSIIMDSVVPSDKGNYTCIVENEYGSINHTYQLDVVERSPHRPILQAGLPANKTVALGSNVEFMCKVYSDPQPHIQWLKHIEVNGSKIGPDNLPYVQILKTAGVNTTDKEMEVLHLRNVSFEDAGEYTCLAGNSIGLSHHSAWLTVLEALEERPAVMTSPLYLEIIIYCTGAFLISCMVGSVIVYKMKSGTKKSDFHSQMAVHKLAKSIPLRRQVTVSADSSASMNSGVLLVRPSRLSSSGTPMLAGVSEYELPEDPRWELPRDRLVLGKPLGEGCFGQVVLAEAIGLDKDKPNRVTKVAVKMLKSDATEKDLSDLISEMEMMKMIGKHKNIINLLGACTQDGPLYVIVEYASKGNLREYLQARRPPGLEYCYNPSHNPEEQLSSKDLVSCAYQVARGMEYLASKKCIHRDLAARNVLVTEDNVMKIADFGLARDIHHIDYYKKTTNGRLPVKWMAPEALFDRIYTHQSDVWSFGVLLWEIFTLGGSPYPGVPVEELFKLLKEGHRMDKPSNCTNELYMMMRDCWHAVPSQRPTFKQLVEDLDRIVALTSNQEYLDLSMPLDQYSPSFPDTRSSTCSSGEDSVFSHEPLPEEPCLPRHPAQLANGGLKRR
Procedure: as §1

[3] = molecular target: CHK1 (Homo sapiens, UniProt O14757); assay: Kinase selectivity profiling, Checkpoint kinase 1; assay type: biochemical; conditions: read-out: Percentage inhibition of CHK1
Chain of CHK1 (O14757 whole entry): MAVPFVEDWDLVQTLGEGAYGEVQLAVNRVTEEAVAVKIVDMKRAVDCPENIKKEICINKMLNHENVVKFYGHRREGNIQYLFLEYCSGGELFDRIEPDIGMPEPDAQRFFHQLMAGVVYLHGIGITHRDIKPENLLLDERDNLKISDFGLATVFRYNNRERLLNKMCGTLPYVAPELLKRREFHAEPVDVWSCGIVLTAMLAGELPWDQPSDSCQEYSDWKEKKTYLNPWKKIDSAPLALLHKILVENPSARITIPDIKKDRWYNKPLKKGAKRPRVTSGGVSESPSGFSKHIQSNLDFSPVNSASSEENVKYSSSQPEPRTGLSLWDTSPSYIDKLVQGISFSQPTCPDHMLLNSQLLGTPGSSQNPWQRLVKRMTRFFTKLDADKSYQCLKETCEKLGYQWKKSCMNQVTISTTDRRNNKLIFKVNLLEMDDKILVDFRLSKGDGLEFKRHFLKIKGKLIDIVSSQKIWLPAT
Procedure: as §1

[4] = molecular target: GSK3β (Homo sapiens, UniProt P49841); assay: Kinase selectivity profiling, Glycogen synthase kinase 3β; assay type: biochemical; conditions: read-out: Percentage inhibition of GSK3β
Chain of GSK3β (P49841 whole entry): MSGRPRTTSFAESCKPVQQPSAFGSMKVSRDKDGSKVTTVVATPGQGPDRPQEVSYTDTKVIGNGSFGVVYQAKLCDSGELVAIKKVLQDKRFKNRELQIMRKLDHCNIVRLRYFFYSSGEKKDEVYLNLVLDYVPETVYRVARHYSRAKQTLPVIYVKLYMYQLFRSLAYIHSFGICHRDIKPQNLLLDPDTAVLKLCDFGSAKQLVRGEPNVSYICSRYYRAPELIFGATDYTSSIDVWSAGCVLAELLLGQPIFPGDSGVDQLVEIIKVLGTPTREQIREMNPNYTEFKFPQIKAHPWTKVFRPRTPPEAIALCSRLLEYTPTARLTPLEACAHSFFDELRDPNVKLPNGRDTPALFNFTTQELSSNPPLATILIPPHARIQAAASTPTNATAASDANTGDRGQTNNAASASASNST
Procedure: as §1

[5] = molecular target: MAPKAPK2 (Homo sapiens, UniProt P49137); assay: Kinase selectivity profiling, Mitogen-activated protein kinase-activated protein kinase 2; assay type: biochemical; conditions: read-out: Percentage inhibition of MAPKAPK2
Chain of MAPKAPK2 (P49137 whole entry): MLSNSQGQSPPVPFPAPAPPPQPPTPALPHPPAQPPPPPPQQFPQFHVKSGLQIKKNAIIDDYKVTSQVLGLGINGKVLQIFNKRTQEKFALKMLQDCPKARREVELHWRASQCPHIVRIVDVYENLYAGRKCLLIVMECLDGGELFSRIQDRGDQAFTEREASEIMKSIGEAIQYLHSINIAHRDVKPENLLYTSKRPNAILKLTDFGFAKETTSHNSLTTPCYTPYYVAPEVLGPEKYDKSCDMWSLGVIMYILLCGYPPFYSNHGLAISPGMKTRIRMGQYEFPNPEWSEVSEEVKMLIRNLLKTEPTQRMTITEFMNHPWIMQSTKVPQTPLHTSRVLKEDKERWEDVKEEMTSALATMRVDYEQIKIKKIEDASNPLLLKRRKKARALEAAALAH
Procedure: as §1

[6] = molecular target: p38α (Homo sapiens, UniProt Q16539); assay: Kinase selectivity profiling, Mitogen-activated protein kinase 14; assay type: biochemical; conditions: read-out: Percentage inhibition of p38α
Chain of p38α (Q16539 whole entry): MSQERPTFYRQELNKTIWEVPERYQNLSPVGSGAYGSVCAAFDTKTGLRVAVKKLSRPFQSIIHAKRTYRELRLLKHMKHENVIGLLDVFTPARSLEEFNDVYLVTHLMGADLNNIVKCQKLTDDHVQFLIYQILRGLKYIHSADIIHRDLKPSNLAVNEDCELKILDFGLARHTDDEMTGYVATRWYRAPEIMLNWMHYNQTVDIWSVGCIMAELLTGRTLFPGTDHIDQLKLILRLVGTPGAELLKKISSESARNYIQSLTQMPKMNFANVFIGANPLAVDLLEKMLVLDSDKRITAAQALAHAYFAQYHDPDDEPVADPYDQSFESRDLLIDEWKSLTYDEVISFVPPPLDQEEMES
Procedure: as §1

[7] = molecular target: p70S6K (Homo sapiens, UniProt P23443); assay: Kinase selectivity profiling, Ribosomal protein S6 kinase; assay type: biochemical; conditions: read-out: Percentage inhibition of p70S6K
Chain of p70S6K (P23443 whole entry): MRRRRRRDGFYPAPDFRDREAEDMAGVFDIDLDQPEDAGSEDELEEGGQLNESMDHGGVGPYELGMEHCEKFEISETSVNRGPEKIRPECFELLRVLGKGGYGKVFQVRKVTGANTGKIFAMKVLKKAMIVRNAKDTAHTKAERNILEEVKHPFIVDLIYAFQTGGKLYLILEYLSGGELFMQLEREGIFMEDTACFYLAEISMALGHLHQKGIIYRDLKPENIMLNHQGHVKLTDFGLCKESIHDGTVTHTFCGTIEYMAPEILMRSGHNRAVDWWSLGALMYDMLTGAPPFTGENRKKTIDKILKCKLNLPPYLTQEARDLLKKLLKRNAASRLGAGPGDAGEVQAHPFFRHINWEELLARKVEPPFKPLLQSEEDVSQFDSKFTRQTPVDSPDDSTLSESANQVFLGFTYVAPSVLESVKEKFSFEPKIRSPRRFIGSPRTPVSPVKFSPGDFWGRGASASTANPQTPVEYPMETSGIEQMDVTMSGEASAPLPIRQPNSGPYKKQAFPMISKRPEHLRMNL
Procedure: as §1

[8] = test system: Wnt target genes (AXIN2, MYC, CCND1) and TNIK; assay: RT-PCR of TNIK and Wnt target genes in HCT116 cells; assay type: cell-based, human; conditions: HCT116, 24 h
Procedure: Total RNA was prepared with an RNeasy Mini Kit (Qiagen). cDNA was synthesized using SuperScript II reverse transcriptase (Thermo Fisher Scientific) or a High-Capacity cDNA reverse transcription kit (Thermo Fisher Scientific) and subjected to TaqMan gene expression assay using pre-designed primer and probe sets (listed in Supplementary Table 3). Amplification data measured as an increase in reporter fluorescence were collected using the StepOne Real-Time PCR System (Thermo Fisher Scientific). The relative mRNA expression level normalized to the internal control (human/mouse β-actin (ACTB/Actb1) gene) was calculated by the comparative threshold cycle (CT) method. Experiments were performed in triplicate and repeated at least two times.

[9] = test system: HCT116 cells; assay: Immunoblotting of CSC, mesenchymal and embryonal stem cell markers in HCT116 cells; assay type: cell-based, human; conditions: HCT116, 3 μM, 48 or 72 h
Procedure: Protein samples were fractionated by SDS–PAGE and blotted onto Immobilon-P membranes (Millipore) as described previously. After incubation with the primary antibodies (listed in Supplementary Table 4) at 4 °C overnight, the blots were detected with the relevant horseradish peroxidase-conjugated anti-mouse or anti-rabbit IgG antibody (Cell Signaling Technology) and Western lighting ECL Pro (PerkinElmer). Signals were visualized with the LAS-4010 system (GE Healthcare). Uncropped versions of the blots in Figs 2e and 3f are shown in Supplementary Fig. 15.

[10] = test system: DLD-1 cells; assay: Limiting dilution analysis of sphere formation, DLD-1; assay type: cell-based, human
Procedure: One million HCT116 and DLD-1 cells were seeded onto 60-mm plates and treated with vehicle (DMSO) or compounds (0.1, 0.3 or 1.0 μM) for either 3 or 4 days. After washing off the compounds, the cells were dissociated to single cells in serum-free DMEM/F12 medium (Thermo Fisher Scientific) containing B27 (Thermo Fisher Scientific), 20 ng ml^−1 epidermal growth factor (EGF; Thermo Fisher Scientific), 10 ng ml^−1 basic fibroblast factor (bFGF; Thermo Fisher Scientific), 5 μg ml^−1 insulin (Thermo Fisher Scientific), 0.4% bovine serum albumin (Sigma-Aldrich) and 2 mM L-glutamine (Thermo Fisher Scientific). One hundred, 10 or 1 viable (determined by trypan-blue dye exclusion) cells were seeded into each well of a 96-well U-bottom PrimeSurface plate (Sumitomo Bakelite). Ten days later, the number of wells showing sphere formation was counted. The frequency of sphere-forming cells was calculated using ELDA software (http://bioinf.wehi.edu.au/software/elda/index.html) provided by the Walter and Eliza Hall Institute (Fig. 5c; Supplementary Table 2). Experiments were performed in triplicate and repeated at least two times.

[11] = test system: HCT116 cells; assay: In vivo tumorigenicity of pretreated HCT116 cells in NOD/ShiJic-scid mice; design: species or system mouse; conditions: HCT116, short-term in vitro treatment
Procedure: After washing off the compounds, 10,000, 1,000, 100 or 10 viable cells in culture medium containing 50% Matrigel (BD Biosciences) were injected subcutaneously into the flanks of NOD/ShiJic-scid Jcl (6-week-old male) mice. The number of mice that developed tumours was counted, and the frequency of cells with tumour-forming capability was calculated using the ELDA software.

[12] = test system: patient-derived colorectal cancer spheroids #19; assay: ATP production of patient-derived spheroid #19; assay type: cell-based; conditions: Homo sapiens, 72 h; spheroid #19, 3 days
Procedure: Cells were seeded at a density of 3,000 cells per well in 96-well plates. Twenty-four hours after seeding, the cells were exposed to serially diluted compounds (0.003, 0.01, 0.03, 0.1, 0.3, 1, 3 and 10 μM) and incubated for 72 h (Fig. 3a). Patient-derived colorectal cancer spheroids were dissociated into single cells with Accutase (Nacalai Tesque) and seeded at a density of 3,000 cells per well into Ultra-Low attachment multiwall 96-well plates (Corning; Fig. 6d). ATP was measured with a CellTiter-Glo Luminescent Cell Viability Assay kit (Promega). Experiments were performed in triplicate and repeated at least two times.

[13] = test system: CD44 and Ki67 expression in xenografts; assay: Immunohistochemistry of spheroid #6 xenografts; assay type: in vivo, mouse; conditions: spheroid #6 xenografts resected after treatment
Procedure: Immunoperoxidase staining (Fig. 6g) was performed using the Ventana DABMap detection kit and an automated slide stainer (Discovery XT, Ventana Medical Systems)[56].

[14] = DLD-1, 3-day treatment, 0.1 μM, 1 cell per well
[15] = DLD-1, 3-day treatment, 0.1 μM, 10 cells per well
[16] = DLD-1, 3-day treatment, 0.1 μM, 100 cells per well
[17] = DLD-1, 3-day treatment, 0.3 μM, 1 cell per well
[18] = DLD-1, 3-day treatment, 0.3 μM, 10 cells per well
[19] = DLD-1, 3-day treatment, 0.3 μM, 100 cells per well
[20] = DLD-1, 3-day treatment, 1.0 μM, 1 cell per well
[21] = DLD-1, 3-day treatment, 1.0 μM, 10 cells per well
[22] = DLD-1, 3-day treatment, 1.0 μM, 100 cells per well
[23] = DLD-1, 4-day treatment, 0.1 μM, 1 cell per well
[24] = DLD-1, 4-day treatment, 0.1 μM, 10 cells per well
[25] = DLD-1, 4-day treatment, 0.1 μM, 100 cells per well
[26] = DLD-1, 4-day treatment, 0.3 μM, 1 cell per well
[27] = DLD-1, 4-day treatment, 0.3 μM, 10 cells per well
[28] = DLD-1, 4-day treatment, 0.3 μM, 100 cells per well
[29] = DLD-1, 4-day treatment, 1.0 μM, 1 cell per well
[30] = DLD-1, 4-day treatment, 1.0 μM, 10 cells per well
[31] = DLD-1, 4-day treatment, 1.0 μM, 100 cells per well

Chain of ABL (P00519 whole entry): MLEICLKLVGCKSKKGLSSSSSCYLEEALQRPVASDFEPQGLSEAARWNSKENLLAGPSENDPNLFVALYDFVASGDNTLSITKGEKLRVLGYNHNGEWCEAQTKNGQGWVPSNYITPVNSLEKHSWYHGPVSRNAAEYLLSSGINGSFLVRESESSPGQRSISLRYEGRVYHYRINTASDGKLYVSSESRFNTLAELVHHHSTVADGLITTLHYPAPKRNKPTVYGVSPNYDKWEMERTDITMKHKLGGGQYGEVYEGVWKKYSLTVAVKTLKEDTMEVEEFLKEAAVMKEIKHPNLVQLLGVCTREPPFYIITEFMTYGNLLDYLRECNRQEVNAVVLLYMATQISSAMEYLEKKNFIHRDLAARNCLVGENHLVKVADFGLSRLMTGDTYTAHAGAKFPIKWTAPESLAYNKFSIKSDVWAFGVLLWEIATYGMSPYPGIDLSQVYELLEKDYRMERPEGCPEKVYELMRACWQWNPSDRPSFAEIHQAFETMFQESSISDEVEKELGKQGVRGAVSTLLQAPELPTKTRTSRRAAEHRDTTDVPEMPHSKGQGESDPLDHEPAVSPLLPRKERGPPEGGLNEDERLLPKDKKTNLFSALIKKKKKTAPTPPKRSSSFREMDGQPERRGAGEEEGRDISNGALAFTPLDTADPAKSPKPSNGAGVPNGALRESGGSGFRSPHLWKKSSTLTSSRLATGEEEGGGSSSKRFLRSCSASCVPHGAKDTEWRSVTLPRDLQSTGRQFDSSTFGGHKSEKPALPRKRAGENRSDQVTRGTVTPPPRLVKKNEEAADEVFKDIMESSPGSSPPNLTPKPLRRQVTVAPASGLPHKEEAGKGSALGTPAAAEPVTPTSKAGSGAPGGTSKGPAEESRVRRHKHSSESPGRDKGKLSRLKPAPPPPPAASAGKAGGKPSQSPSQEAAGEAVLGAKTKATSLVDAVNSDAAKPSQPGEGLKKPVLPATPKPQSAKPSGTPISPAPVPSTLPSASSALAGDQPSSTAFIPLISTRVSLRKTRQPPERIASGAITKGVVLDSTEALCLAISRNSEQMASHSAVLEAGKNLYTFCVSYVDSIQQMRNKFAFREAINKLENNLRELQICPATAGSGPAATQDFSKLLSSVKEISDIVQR

| SMILES | inhibition at 0.1 µM [1] [%] | inhibition at 0.1 µM [2] [%] | inhibition at 0.1 µM [3] [%] | inhibition at 0.1 µM [4] [%] | inhibition at 0.1 µM [5] [%] | inhibition at 0.1 µM [6] [%] | inhibition at 0.1 µM [7] [%] | downregulation of expression of putative colorectal CSC markers CD44, CD133, ALDH1 [9] | Sphere-containing wells/total wells [10, 14] | Sphere-containing wells/total wells [10, 15] | Sphere-containing wells/total wells [10, 16] | Sphere-containing wells/total wells [10, 17] | Sphere-containing wells/total wells [10, 18] | Sphere-containing wells/total wells [10, 19] | Sphere-containing wells/total wells [10, 20] | Sphere-containing wells/total wells [10, 21] | Sphere-containing wells/total wells [10, 22] | Sphere-containing wells/total wells [10, 23] | Sphere-containing wells/total wells [10, 24] | Sphere-containing wells/total wells [10, 25] | also measured |
| --- | --- | --- | --- | --- | --- | --- | --- | --- | --- | --- | --- | --- | --- | --- | --- | --- | --- | --- | --- | --- | --- |
| O[C@H]1CC[C@@H](Oc2cccc3cnc(Nc4ccc5nc[nH]c5c4)nc23)CC1 [NCB-0846, cis-4-(2-(3H-benzo[d]imidazol-5-ylamino)quinazolin-8-yloxy)cyclohexanol] | 16.9 | 32.5 | 10.1 | 27.7 | -5.8 | -3.5 | 11 | downregulated | 55/96 | 95/96 | 96/96 | 23/96 | 86/96 | 96/96 | 3/96 | 25/96 | 77/96 | 39/96 | 92/96 | 96/96 | expression of AXIN2 gene [8]: reduced; expression of CCND1 gene [8]: not affected; expression of MYC gene [8]: reduced; expression of TNIK gene [8]: reduced; embryonal stem cell markers (Oct4, Nanog and Sox2) [9]: not affected; expression of mesenchymal markers (Slug, Snail, Twist, Smad2 and Vimentin) [9]: reduced; Sphere-containing wells/total wells [10, 26]: 46/96; Sphere-containing wells/total wells [10, 27]: 90/96; Sphere-containing wells/total wells [10, 28]: 95/96; Sphere-containing wells/total wells [10, 29]: 7/96; Sphere-containing wells/total wells [10, 30]: 34/96; Sphere-containing wells/total wells [10, 31]: 96/96; sphere formation activity ([10]; DLD-1, short-term (3–4 days) treatment): significantly abrogated; tumour formation [11]: significantly reduced; IC50 [12]: 620 nM; CD44 expression in xenografts [13]: suppression; Ki67 expression in xenografts [13]: modest decrease |
| O[C@H]1CC[C@H](Oc2cccc3cnc(Nc4ccc5nc[nH]c5c4)nc23)CC1 [NCB-0970] | 3.9 | 14.4 | 9 | 13.5 | -9.3 | -2.8 | 11.4 | not | 40/96 | 96/96 | 96/96 | 51/96 | 95/96 | 96/96 | 16/96 | 75/96 | 95/96 | 55/96 | 95/96 | 96/96 | Sphere-containing wells/total wells [10, 26]: 65/96; Sphere-containing wells/total wells [10, 27]: 94/96; Sphere-containing wells/total wells [10, 28]: 96/96; Sphere-containing wells/total wells [10, 29]: 45/96; Sphere-containing wells/total wells [10, 30]: 95/96; Sphere-containing wells/total wells [10, 31]: 96/96; tumour formation [11]: not; IC50 [12]: > 3000 nM |
